The source of these data is publication PMC8955377, “Greener Synthesis of Antiproliferative Furoxans via Multicomponent Reactions” (Molecules, 2022).

Each structure is given as a SMILES string.

One experiment concerns T24 cells. Nature of the experiment: Antiproliferative activity, sulforhodamine B assay, T24 bladder cancer cells. In kind it is cell-based, human. The settings on record: SRB, mean (±SEM). As for the experimental part: (§1) In vitro antiproliferative activity of the compounds was determined in cells derived from bladder cancer (T24) and prostate cancer (LNCaP). The cells were incubated in the presence of the compounds for 48 h. The antiproliferative activity was determined using the sulforhodamine B assay. The results were expressed as GI50, which is the drug concentration resulting in a 50% reduction of cellular net growth when compared with the values of untreated control cells. The standard anticancer drug cisplatin was used as a positive control, and furoxan 3 and 11a were also included as ⋅NO donor reference compounds. The results are summarized in Table 2 for the Ugi product 7a, Ugi-Fx (8a) and 8b–g Ugi-furoxan derivatives, and GBB product 10 and 12a–e GBB-furoxan derivatives.
(§2) The T24 cells were grown in McCoy’s 5A (Biological Industries) supplemented with 10% FBS (Capricorn Scientific). The cells were passaged twice per week, and the culture medium was changed with the same frequency. The LNCaP cells were maintained in RPMI media (Biological Industries) supplemented with 10% FBS (Capricorn Scientific) and 10% of its own conditioned medium (complete media). The cells were passaged once per week, and the medium was changed with the same frequency. The HaCaT cells (immortalized human keratinocytes) were cultured in Dulbecco’s modified Eagle medium (Biological Industries) supplemented with 10% FBS (Capricorn Scientific). The cells were passaged twice per week, and the medium was changed with the same frequency. The cell cultures were maintained under a humidified 5% CO2 atmosphere at 37 °C.
(§3) For viability assays, cells were treated with a 0.25% Trypsin–0.05% EDTA solution and plated in 96-well plates in complete medium the day before the experiment. The cells were seeded in a 96-well plate at densities of 8 × 10^3 cells per well for T24 cells, 12.5 × 10^3 cells per well for LNCaP cells, and 10 × 10^3 cells per well for HaCaT cells. The cultures were allowed to attach for 24 h in a humidified 5% CO2 atmosphere at 37 °C. Then, the cells were treated with increasing concentrations of the compounds (0.4–100.0 µM) prepared in complete medium using stock solutions in DMSO and were kept for 48 h in a CO2 incubator. Wells with only media or 0.5% DMSO were added as controls. The antiproliferative activity of the compounds was assayed using the SRB method in at least three independent experiments.

Another experiment relates to LNCaP cells. Nature of the experiment: Antiproliferative activity, sulforhodamine B assay, LNCaP prostate cancer cells. The settings on record: 48 h, SRB, mean (±SEM). It is filed as cell-based, human. Here is the method: as §1, §2, §3
A further experiment relates to HaCaT cells. Nature of the experiment: Cytotoxicity in non-cancer keratinocytes, sulforhodamine B assay. In kind it is cell-based. The settings on record: HaCaT human keratinocytes, 0.4–100 µM, SRB; mean (±SEM). As for the experimental part:
As a first approximation of the safety profile of the synthesized compounds and to determine the cytotoxic selectivity against cancer cells, the antiproliferative activity in non-cancer cells was studied. This evaluation was carried out in human keratinocyte HaCaT cells with 0.4–100 µM of the test compounds using the sulforhodamine B assay. The selectivity index (SI) was calculated for these compounds by dividing the GI50 for HaCaT by the GI50 for each cancer cell line. […] The derivatives Ugi-Fx (8a) and 12e stand out, with selectivity indices of 14.5 and 10.8, respectively. […] Concerning the LNCaP prostate cancer cell line, as for the reference drug, no selectivity was observed. […] Therefore, this new GBB-furoxan derivative can be a starting point in the design of new structures with improved selectivity.
as §2, §3

Take `Cc1ccc(N(C(=O)c2cccc(O)c2)C(C(=O)NC(C)(C)C)c2ccccc2)cc1` (stereo not drawn) [7a, N-(1-(tert-butylaminocarbonyl)-1-phenylmethyl)-N-(4-methylphenyl)-3-hydroxyphenyl carboxamide]: the concentration for 50% growth inhibition (GI50) is above 100 µM in the experiment on T24 cells (Homo sapiens, T-24, 48 h) and above 100 µM with LNCaP cells (Homo sapiens).
Consider `Cc1ccc(N(C(=O)c2ccccc2Oc2no[n+]([O-])c2S(=O)(=O)c2ccccc2)C(C(=O)NC(C)(C)C)c2ccccc2)cc1` (stereo not drawn) [8b, N-[1-(tert-butylaminocarbonyl)-1-phenylmethyl]-N-(4-methylphenyl)-2-[3-(phenylsulfonyl)-[1,2,5]oxadiazol-4-yl N2-oxide]oxyphenylcarboxamide], for which the GI50 with T24 cells (Homo sapiens, T-24, 48 h) is 1.83 µM; with LNCaP cells (Homo sapiens) it was 13.3 µM; in the experiment on HaCaT cells, 3.78 µM.
For `Cc1ccc(N(C(=O)c2ccc(Oc3no[n+]([O-])c3S(=O)(=O)c3ccccc3)cc2)C(C(=O)NC(C)(C)C)c2ccccc2)cc1` (stereo not drawn) [8c, N-[1-(tert-butylaminocarbonyl)-1-phenylmethyl]-N-(4-methylphenyl)-4-[3-(phenylsulfonyl)-[1,2,5]oxadiazol-4-yl N2-oxide]oxyphenylcarboxamide] the same measures were 2.18 µM, 18.8 µM and 4.62 µM.
The matching figures for `Cc1ccc(N(CC(=O)NC(C)(C)C)C(=O)c2cccc(Oc3no[n+]([O-])c3S(=O)(=O)c3ccccc3)c2)cc1` [8d, N-(1-(tert-butylaminocarbonyl)methyl)-N-(4-methylphenyl)-3-[3-(phenylsulfonyl)-[1,2,5]oxadiazol-4-yl N2-oxide]oxy phenylcarboxamide]: 2.1 µM, 21.8 µM and 9.99 µM.
For `CCCCN(C(=O)c1cccc(Oc2no[n+]([O-])c2S(=O)(=O)c2ccccc2)c1)C(C(=O)NC(C)(C)C)c1ccccc1` (stereo not drawn) [8e, N-(1-(tert-butylaminocarbonyl)-1-phenylmethyl)-N-(butyl)-3-[3-(phenylsulfonyl)-[1,2,5]oxadiazol-4-yl N2-oxide]oxyphenylcarboxamide] the same measures were 1.53 µM, 21.8 µM and 11.8 µM.
For `CCCCN(CC(=O)NC(C)(C)C)C(=O)c1cccc(Oc2no[n+]([O-])c2S(=O)(=O)c2ccccc2)c1` [8f, N-(1-(tert-butylaminocarbonyl)methyl)-N-(butyl)-3-[3-(phenylsulfonyl)-[1,2,5]oxadiazol-4-yl N2-oxide]oxyphenylcarboxamide], the GI50 is 2.86 µM in the experiment on T24 cells (Homo sapiens, T-24, 48 h); 29.9 µM with LNCaP cells (Homo sapiens); 11.8 µM in the experiment on HaCaT cells.
For `Cc1ccc(N(C(=O)c2ccccc2)C(C(=O)NC(C)(C)C)c2cccc(Oc3no[n+]([O-])c3S(=O)(=O)c3ccccc3)c2)cc1` (stereo not drawn) [8g, N-(1-(tert-butylaminocarbonyl)-1-3-[3-(phenylsulfonyl)-[1,2,5]oxadiazol-4-yl N2-oxide]oxyphenylmethyl)-N-(4-methylphenyl)-phenylcarboxamide] the same measures were 1.7 µM, 36.7 µM and 4.99 µM.
The matching figures for `O=Cc1cccc(Oc2no[n+]([O-])c2S(=O)(=O)c2ccccc2)c1` [11a, reference compound]: 7.08 µM, 24.5 µM and 7.83 µM.
For `CC(C)(C)Nc1c(-c2cccc(Oc3no[n+]([O-])c3S(=O)(=O)c3ccccc3)c2)nc2ccccn12` [12a, 4-(3-(3-(tert-butylamino)imidazo[1,2-a]pyridin-2-yl)phenoxy)-3-(phenylsulfonyl)-1,2,5-oxadiazole 2-oxide] the same measures were 1.76 µM, 24.7 µM and 7.44 µM.
As for `CC(C)(C)Nc1c(-c2ccccc2Oc2no[n+]([O-])c2S(=O)(=O)c2ccccc2)nc2ccccn12` [12b, 4-(2-(3-(tert-butylamino)imidazo[1,2-a]pyridin-2-yl)phenoxy)-3-(phenylsulfonyl)-1,2,5-oxadiazole 2-oxide], the “GI50 T24” value in the experiment with T24 cells (48 h) is reported as “sub-micromolar range”. The GI50 is 0.85 µM in the experiment on T24 cells (Homo sapiens, T-24, 48 h); 7.7 µM in the experiment on LNCaP cells (Homo sapiens); 3.11 µM in the experiment on HaCaT cells.
Regarding `CC(C)(C)Nc1c(-c2ccc(Oc3no[n+]([O-])c3S(=O)(=O)c3ccccc3)cc2)nc2ccccn12` [12c, 4-(4-(3-(tert-butylamino)imidazo[1,2-a]pyridin-2-yl)phenoxy)-3-(phenylsulfonyl)-1,2,5-oxadiazole 2-oxide], the 50% growth inhibitory concentration (GI50) was found to be 2.99 µM in the experiment on T24 cells (Homo sapiens, T-24, 48 h); 24.2 µM with LNCaP cells (Homo sapiens); 5.22 µM with HaCaT cells.
For `CC(C)(C)Nc1c(-c2cccc(Oc3no[n+]([O-])c3S(=O)(=O)c3ccccc3)c2)nc2cnccn12` [12d, 4-(3-(3-(tert-butylamino)imidazo[1,2-a]pyrazin-2-yl)phenoxy)-3-(phenylsulfonyl)-1,2,5-oxadiazole 2-oxide] the same measures were 2.72 µM, 8.13 µM and 9.84 µM.
Consider `CC(C)(C)Nc1c(-c2cccc(Oc3no[n+]([O-])c3S(=O)(=O)c3ccccc3)c2)nc2sccn12` [12e, 4-(3-(5-(tert-butylamino)imidazo[2,1-b]thiazol-6-yl)phenoxy)-3-(phenylsulfonyl)-1,2,5-oxadiazole 2-oxide], for which the “GI50 T24” value in the experiment with T24 cells (48 h) was “sub-micromolar range”. Moreover, the 50% growth inhibitory concentration (GI50) in the experiment with T24 cells (Homo sapiens, T-24, 48 h) was found to be 0.83 µM; in the experiment on LNCaP cells (Homo sapiens) it was 16.5 µM; in the experiment with HaCaT cells, 9.01 µM.
With `N.N.[Cl][Pt][Cl]` [Cisplatin, cisplatin, reference compound], the GI50 with T24 cells (48 h) stood at 3.28 µM; with LNCaP cells, 20.3 µM; in the experiment on HaCaT cells, 2.51 µM.
For the compound `O=C(O)c1cccc(Oc2no[n+]([O-])c2S(=O)(=O)c2ccccc2)c1` [compound 3, reference compound], the GI50 in the experiment with T24 cells (Homo sapiens, T-24, 48 h) was 8.6 µM; in the experiment on LNCaP cells (Homo sapiens), 32.5 µM; in the experiment with HaCaT cells, 14.4 µM.
For the compound `CC(C)(C)Nc1c(-c2cccc(O)c2)nc2ccccn12` [compound 10, N-tert-Butyl-2-(3-hydroxyphenyl)imidazo[1,2-a]pyridin-3-amine], the concentration for 50% growth inhibition (GI50) is above 100 µM in the experiment with T24 cells (Homo sapiens, T-24, 48 h) and above 100 µM with LNCaP cells (Homo sapiens).
